Columns and labels:
hA2B AR = biological target: T1, hA2B AR (Homo sapiens, UniProt P29275); assay: cAMP assay, stimulation of cAMP production in hA2B CHO cells (agonism); type: cell-based; details: for Emax at 1 µM: CHO, compound at 1µM, in comparison with NECA (1µM = 100%), read-out: Efficacy hA2B (cAMP assays) (converted); for EC50: hA2B CHO cells, means ± SEM of four assays
T1 construct: expressed in transfected cells; host or cells: CHO cells
T1 sequence (P29275 1-332): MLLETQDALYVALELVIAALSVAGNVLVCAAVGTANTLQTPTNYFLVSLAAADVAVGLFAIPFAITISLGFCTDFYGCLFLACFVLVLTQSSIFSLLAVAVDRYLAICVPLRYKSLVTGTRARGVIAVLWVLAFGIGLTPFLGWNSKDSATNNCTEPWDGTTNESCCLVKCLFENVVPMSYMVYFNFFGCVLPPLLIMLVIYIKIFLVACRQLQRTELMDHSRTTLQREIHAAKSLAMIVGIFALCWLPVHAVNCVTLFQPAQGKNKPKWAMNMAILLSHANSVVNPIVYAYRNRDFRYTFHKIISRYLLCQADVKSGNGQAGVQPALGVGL
Method: The amino-3,5-dicyanopyridines 1–20 were tested for their affinity at hA1, hA2A, and hA3 ARs, stably transfected in Chinese Hamster Ovary (CHO) cells, and were also studied as hA2B agonists by evaluating their stimulatory effect on cAMP production in CHO cells, stably expressing the hA2B AR.
(§1) CHO cells transfected with hA1, hA2A, hA2B, and hA3 ARs were grown adherently and maintained in Dulbecco’s modified Eagle’s medium (Sigma-Aldrich, Milan, Italy) with nutrient mixture F12, containing 10% fetal calf serum, penicillin (100 U/mL), streptomycin (100 μg/mL), l-glutamine (2 mM) and geneticin (G418; 0.2 mg/mL) at 37°C in 5% CO2/95% air until the use in cAMP assays. For membrane preparation, the culture medium was removed, and the cells were washed with phosphate-buffered saline and scraped off T75 flasks in ice-cold hypotonic buffer (5 mM Tris HCl, 1 mM EDTA, pH 7.4). The cell suspension was homogenized with a Polytron, centrifuged for 30 min at 40000 g at 4°C, and the resulting membrane pellet was used for competition binding experiments.
CHO cells transfected with hAR subtypes were washed with phosphate-buffered saline, detached with trypsin and centrifuged for 10 min at 200 g. Cells were seeded in 96-well white half-area microplate (Perkin Elmer, Boston, USA) in a stimulation buffer composed of Hank Balanced Salt Solution (Sigma-Aldrich, Milan, Italy), 5 mM HEPES, 0.5 mM Ro 20-1724, and 0.1% BSA. cAMP levels were then quantified by using the AlphaScreen cAMP Detection Kit (Perkin Elmer) following the manufacturer’s instructions. At the end of the experiments, plates were read with the Perkin Elmer EnSight Multimode Plate Reader.

hA3 AR = biological target: T2, hA3 AR (Homo sapiens, UniProt P0DMS8); assay: [125I]AB-MECA competition binding to hA3 CHO cell membranes; details: for Ki: hA3 CHO cells, means ± SEM; for inhibition at 1 µM: percentage of inhibition at 1µM
T2 construct: expressed in transfected cells; host or cells: CHO cells
T2 sequence (P0DMS8 1-318): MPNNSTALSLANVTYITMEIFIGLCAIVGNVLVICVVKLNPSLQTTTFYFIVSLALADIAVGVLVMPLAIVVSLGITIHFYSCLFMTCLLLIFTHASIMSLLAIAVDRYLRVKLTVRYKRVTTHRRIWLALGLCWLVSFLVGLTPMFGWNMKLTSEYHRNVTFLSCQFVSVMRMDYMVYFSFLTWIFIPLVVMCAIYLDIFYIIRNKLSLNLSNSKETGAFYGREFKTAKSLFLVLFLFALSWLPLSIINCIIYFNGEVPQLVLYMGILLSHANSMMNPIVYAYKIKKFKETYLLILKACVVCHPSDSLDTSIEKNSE
Method: as §1
(§2) All synthesized compounds have been tested for their affinity to hA1, hA2A, and hA3 ARs. Competition experiments to hA1 ARs were carried out incubating 1 nM [^3H]-8-cyclopentyl-1,3-dipropylxanthine ([^3H]-DPCPX) with membrane suspension (50 μg of protein/100 μL) and different concentrations of the examined compounds at 25°C for 90 min in 50 mM Tris HCl, pH 7.4. […] Inhibition experiments to hA2A ARs were performed incubating the radioligand [^3H]-ZM241385 (4-(2-[7-Amino-2-(2-furyl)[1,2,4]triazolo[2,3-a][1,3,5]triazin-5-ylamino]ethyl)phenol) (1 nM) with the membrane suspension (50 μg of protein/100 μL) and different concentrations of the examined compounds for 60 min at 4°C in 50 mM Tris HCl (pH 7.4), 10 mM MgCl2. Non-specific binding was determined in the presence of ZM241385 (1 μM) and was about 20% of the total binding. Competition binding experiments to A3 ARs were carried out incubating the membrane suspension (50 μg of protein/100 μL) with 0.5 nM [^125I]-N^6-(4-aminobenzyl)-N-methylcarboxamidoadenosine ([^125I]-ABMECA) in the presence of different concentration of the examined compounds for an incubation time of 120 min at 4°C in 50 mM Tris HCl (pH 7.4), 10 mM MgCl2, and 1 mM EDTA. Non-specific binding was defined as binding in the presence of 1μM ABMECA and was always < 10% of the total binding. Bound and free radioactivity were separated by filtering the assay mixture through Whatman GF/B glass fiber filters using a Brandel cell harvester (Brandel Instruments, Unterföhring, Germany). The filter bound radioactivity was counted by Packard Tri Carb 2810 TR scintillation counter (Perkin Elmer, Boston, MA, USA).
(§3) The protein concentration was determined according to a Bio-Rad method with bovine albumin as a standard reference. Inhibitory binding constant (Ki) values were calculated from those of IC50 according to Cheng & Prusoff equation Ki = IC50/(1+[C*]/KD*), where [C*] is the concentration of the radioligand and KD* its dissociation constant. Ki and IC50 values were calculated by non-linear regression analysis using the equation for a sigmoid concentration-response curve (Graph-PAD Prism, San Diego, CA, USA).

hA1 AR = biological target: T3, hA1 AR (Homo sapiens, UniProt P30542); assay: [3H]DPCPX competition binding to hA1 CHO cell membranes; details: for I% hA1: percentage of inhibition at 1µM, [3H]DPCPX
T3 construct: expressed in transfected cells; host or cells: CHO cells
T3 sequence (P30542 1-326): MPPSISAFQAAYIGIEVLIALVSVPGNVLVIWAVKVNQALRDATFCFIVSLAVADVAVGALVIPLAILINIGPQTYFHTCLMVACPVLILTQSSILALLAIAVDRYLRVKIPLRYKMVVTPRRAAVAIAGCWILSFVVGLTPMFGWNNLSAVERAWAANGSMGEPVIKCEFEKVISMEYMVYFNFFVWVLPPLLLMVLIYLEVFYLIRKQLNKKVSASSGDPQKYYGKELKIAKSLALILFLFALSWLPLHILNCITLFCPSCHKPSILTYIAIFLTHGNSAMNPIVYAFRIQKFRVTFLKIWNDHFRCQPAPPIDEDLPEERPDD
Method: as §1, §2, §3

hA2A AR = biological target: T4, hA2A AR (Homo sapiens, UniProt P29274); assay: [3H]ZM241385 competition binding to hA2A CHO cell membranes; details: for I% hA2A: percentage of inhibition at 1µM, [3H]ZM241385; for Ki: [3H]ZM241385, hA2A CHO cells, means ± SEM
T4 construct: expressed in transfected cells; host or cells: CHO cells
T4 sequence (P29274 whole entry): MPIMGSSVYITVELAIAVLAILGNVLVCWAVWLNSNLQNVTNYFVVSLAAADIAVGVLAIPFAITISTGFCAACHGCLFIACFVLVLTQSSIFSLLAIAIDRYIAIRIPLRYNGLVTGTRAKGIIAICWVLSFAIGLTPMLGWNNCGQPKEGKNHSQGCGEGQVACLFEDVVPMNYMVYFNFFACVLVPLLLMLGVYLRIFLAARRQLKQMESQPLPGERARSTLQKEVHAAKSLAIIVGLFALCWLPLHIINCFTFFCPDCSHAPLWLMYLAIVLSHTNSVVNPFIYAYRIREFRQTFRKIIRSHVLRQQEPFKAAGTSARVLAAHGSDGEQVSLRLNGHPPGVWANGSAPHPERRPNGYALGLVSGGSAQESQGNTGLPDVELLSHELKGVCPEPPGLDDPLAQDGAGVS
Method: as §1, §2, §3

SMILES	Emax at 1 µM (hA2B AR) [%]	EC50 (hA2B AR) [nM]	Ki (hA3 AR) [nM]	I% hA1 (hA1 AR) [%]	I% hA2A (hA2A AR) [%]	melting point	inhibition at 1 µM (hA3 AR) [%]	Ki (hA1 AR) [nM]	Ki (hA2A AR) [nM]	Pharmacological profile at hA2BAR (hA2B AR; cAMP assay)
N#Cc1c(N)nc(SCc2ncc[nH]2)c(C#N)c1-c1ccc(OCC2CCC2)cc1 [Compound 1, 2-Amino-4-[4-(cyclobutylmethoxy)phenyl]-6-[(1H-imidazol-2-ylmethyl)sulfanyl]pyridine-3,5-dicarbonitrile]	12	> 1000	574 ± 46	25	4	214 to 216 °C				
N#Cc1c(N)nc(SCc2ncc[nH]2)c(C#N)c1Cc1ccccc1 [Compound 12, 2-Amino-4-benzyl-6-[(1H-imidazol-2-ylmethyl)sulfanyl]pyridine-3,5-dicarbonitrile]	44	260 ± 24		31	8	246 to 248 °C (dec.)	1			
N#Cc1c(N)nc(NCCO)c(C#N)c1-c1ccccc1 [Compound 15, 2-Amino-6-[(2-hydroxyethyl)amino]-4-phenylpyridine-3,5-dicarbonitrile]	1	> 1000			1	230 to 231 °C	1	943 ± 87		
CC(C)COc1ccc(-c2c(C#N)c(N)nc(SCc3ncc[nH]3)c2C#N)cc1 [Compound 2, 2-Amino-6-[(1H-imidazol-2-ylmethyl)sulfanyl]-4-[4-(2-methylpropoxy)phenyl]pyridine-3,5-dicarbonitrile]	36	227 ± 21		26	1	230 to 232 °C	1			
N#Cc1cnc(N)c(C#N)c1-c1ccccc1 [Compound 18, 2-amino-4-phenylpyridine-3,5-dicarbonitrile]	1	> 1000		15	16	244 to 246 °C	5			
N#Cc1c(N)nc(SCc2ncc[nH]2)c(C#N)c1-c1ccc(Cl)cc1 [Compound 7, 2-Amino-4-(4-chlorophenyl)-6-[(1H-imidazol-2-ylmethyl)sulfanyl]pyridine-3,5-dicarbonitrile]	32	109 ± 12	850 ± 62			229 to 231 °C (dec.)		30 ± 4	865 ± 68	
C=C(C)COc1ccc(-c2c(C#N)c(N)nc(SCc3ncc[nH]3)c2C#N)cc1 [Compound 4, 2-Amino-6-[(1H-imidazol-2-ylmethyl)sulfanyl]-4-{4-[(2-methylprop-2-en-1-yl)oxy]phenyl} pyridine-3,5-dicarbonitrile]	14	> 1000			1	224 to 226 °C	8	77 ± 6		
N#Cc1c(N)nc(-n2ccnc2)c(C#N)c1-c1ccccc1 [Compound 17, 2-Amino-6-(1H-imidazol-1-yl)-4-phenylpyridine-3,5-dicarbonitrile]	1	> 1000		27	1	253 to 255 °C	25			
N#Cc1c(N)nc(NCc2ncc[nH]2)c(C#N)c1-c1ccccc1 [Compound 14, 2-Amino-6-[(1H-imidazol-2-ylmethyl)amino]-4-phenylpyridine-3,5-dicarbonitrile]	1	> 1000				208 to 210 °C	19	140 ± 12	115 ± 10	
COc1ccc(CCNc2nc(N)c(C#N)c(-c3ccccc3)c2C#N)cc1 [Compound 16, 2-Amino-6-{[2-(4-methoxyphenyl)ethyl]amino}-4-phenylpyridine-3,5-dicarbonitrile]	1	> 1000		1	1		1			
Cc1ccc(-c2c(C#N)c(N)nc(SCc3ncc[nH]3)c2C#N)cc1 [Compound 10, 2-[(1H-Imidazol-2-il)metiltio]-6-ammino-4(4-metilfenil)piridina-3,5-dicarbonitrile]	78	78 ± 6	212 ± 19			259 to 261 °C (dec.)		5.32 ± 0.42	47 ± 4	
CC(=O)Nc1ccc(-c2c(C#N)c(N)nc(SCc3ncc[nH]3)c2C#N)cc1 [Compound 6, N-(4-{2-Amino-3,5-dicyano-6-[(1H-imidazol-2-ylmethyl)sulfanyl]pyridin-4-yl}phenyl) acetamide]	100	12 ± 1	48 ± 4			275 to 278 °C		83 ± 7	38 ± 3	full agonist profile
Cc1c(C#N)c(N)nc(SCc2ncc[nH]2)c1C#N [Compound 13, 2-Amino-6-[(1H-imidazol-2-ylmethyl)sulfanyl]-4-methylpyridine-3,5-dicarbonitrile]	1	> 1000	510 ± 53			267 to 269 °C (dec.)		74 ± 8	331 ± 32	
COc1ccc(-c2c(C#N)c(N)nc(NCCO)c2C#N)cc1 [Compound 19, 2-Amino-6-[(2-hydroxyethyl)amino]-4-(4-methoxyphenyl)pyridine-3,5-dicarbonitrile]	1	> 1000		14	2	248 to 250 °C	15			

— PMC6958422 (Pharmaceuticals, 2019)
